Data on 3 compounds can be found in publication PMC5366949, “The toxicity of angiotensin converting enzyme inhibitors to larvae of the disease vectors Aedes aegypti and Anopheles gambiae” (Scientific Reports, 2017).

Read-outs that look alike come from different tables or passages of the source.

In assay [1] the test system is T1, Ae. aegypti larval ACE (soluble peptidyl dipeptidase activity).
T1 construct: native; 55,000 g supernatant of whole 3rd instar larval homogenate, not purified; gene(s) not identified for this species
As to the kind of experiment: fluorogenic peptidase assay, larval high-speed supernatant. As to conditions: substrate Abz-Phe-Arg-Lys(Dnp)-Pro-OH about 25 uM, pH 7.5, 50 mM NaCl, 10 uM ZnCl2, 20 C, 10 min pre-incubation, read-out: Aedes aegypti / IC50. It is filed as biochemical. From the text:
fluorogenic peptidase assay, larval high-speed supernatant on Ae. aegypti larval ACE (soluble peptidyl dipeptidase activity)

Assay [2] has as its system T2, An. gambiae larval ACE (soluble peptidyl dipeptidase activity; one or both of AnoACE2 and AnoACE3).
T2 construct: native; 55,000 g supernatant of whole 3rd instar larval homogenate, not purified; AnoACE2 and/or AnoACE3 inferred by the authors from soluble activity and larval expression
The description is as above. It is filed as biochemical. As to conditions: substrate Abz-Phe-Arg-Lys(Dnp)-Pro-OH about 25 uM, pH 7.5, 50 mM NaCl, 10 uM ZnCl2, 20 C, 10 min pre-incubation, read-out: Anopheles gambiae / IC50. The text has this:
fluorogenic peptidase assay, larval high-speed supernatant on An. gambiae larval ACE (soluble peptidyl dipeptidase activity; one or both of AnoACE2 and AnoACE3)

Regarding `C[C@H](CS)C(=O)N1CCC[C@H]1C(=O)O` [captopril], the IC50 in assay [1] worked out at 0.00247 µM; in assay [2], 0.0167 µM.

`CCC(=O)O[C@@H](O[P@](=O)(CCCCc1ccccc1)CC(=O)N1C[C@H](C2CCCCC2)C[C@H]1C(=O)O)C(C)C` [fosinopril]: the IC50 in assay [1] (pro-drug ester of fosinoprilat) amounted to 0.373 µM; in assay [2] (pro-drug ester of fosinoprilat) it was 0.326 µM.

As to `O=C(O)[C@@H]1C[C@@H](C2CCCCC2)CN1C(=O)CP(=O)(O)CCCCc1ccccc1` [fosinoprilat], the values for the IC50 in assay [1] and in assay [2] were 0.00661 µM and 0.0352 µM, respectively.
